Measurements as given in PMC8346995, “Synthesis, Characterization, In Vitro Anticancer Potentiality, and Antimicrobial Activities of Novel Peptide–Glycyrrhetinic-Acid-Based Derivatives” (Molecules, 2021).
≈ marks a conversion by molar mass, not a printed value. Residues, ends and D or L forms follow the SMILES beside them. *: point of attachment. X1 = CC1(C(=O)*)CCC2(C)CCC3(C)C(=CC(=O)C4C5(C)CCC(O)C(C)(C)C5CCC43C)C2C1

Columns and labels:
[1] = system: human breast MCF-7 cancer cell line; experiment: MTT cytotoxicity assay, breast MCF-7 cancer cell line; assay type: cell-based; conditions: Homo sapiens, MCF7; MTT, mean of three replicates; read-out: IC50 (µg/mL) ± SD MCF-7
Method: (§1) Accordingly, all the newly synthesized GA-based peptides except 1 and 6 were screened for their cytotoxicity against three different human cancer cell lines: MCF-7, HCT-116, and HepG-2 cell lines at different concentrations (10, 5, 2.5, 1.25, and 0.625 µg/mL).
(§2) Human breast MCF-7, colon HCT-116, and liver HepG-2 carcinoma cell line were taken from Vacsera (Giza, Egypt). The culture was retained in RPMI 1640 medium with 1% antibiotic–antimycotic mixture (25 μg/mL amphotericin B, 10,000 μg/mL streptomycin sulfate, and 10,000 U/mL potassium penicillin), 1% L-glutamine, and complemented by 10% heat inactivated fetal bovine serum. […] This experiment was carried out according to the reported MTT assay method, and the absorbance was measured at 595 nm.

[2] = system: human colon HCT-116 cancer cell line; experiment: MTT cytotoxicity assay, colon HCT-116 cancer cell line; conditions: for IC50: Homo sapiens, HCT-116, read-out: IC50 (µg/mL) ± SD HCT-116
Method: as §1, §2

[3] = system: human normal skin fibroblasts cell line BJ-1; experiment: Cytotoxicity against normal skin fibroblasts BJ-1; assay type: cell-based; conditions: human, 10 µg/mL
Method: The frequency and severity of side effects to normal cells at therapeutic levels is one of the most critical factors that distinguish different anticancer drugs from each other. Accordingly, the GA peptides 1–8 were furthermore screened for their cytotoxicity at 10 µg/mL against the human normal skin fibroblasts cell line BJ-1 to determine their safety upon normal cells (Figure 4).

Bcl-2 = experiment: Estimation of Bcl-2 level in MCF-7 cells; assay type: cell-based, human; conditions: MCF-7 cells treated at IC50 5 μg/mL for 24 h; untreated 7.20 ng/mL
Text: (§3) The extrinsic pathway (death receptor) and the intrinsic pathway (mitochondrial route) are the main two routes that control a cell during apoptosis. The Bcl-2 protein introduces a central role in tumor growth or suppression the intrinsic apoptotic pathway. Conversely, the pro-apoptotic Bax acts essentially to enhance the process of cell apoptosis. Increasing the level of the anti-apoptotic Bcl-2 within the cancerous cell boosts the cell survival through inhibiting apoptosis. Accordingly, a balance situation between these two proteins determines the cell fate. Furthermore, p53 serves as a transcription factor acting as a tumor suppressor protein. This protein is expressed due to various cellular stresses such as DNA disruption. It is usually mutated in human cancers. The p53 pathway mediates either cell cycle arrest or apoptosis controlling the expression of Bcl-2 and Bax genes. Thus, since compound 5 produced the most promising cytotoxic activity against breast cancer cell lines with a safety profile against the normal cells, it was of interest to study its impact on the regulation of the oncogenic markers Bax, Bcl-2, and p53. […]
The samples and standards having Bcl-2 were estimated as previously mentioned. […] Then, the reaction was terminated by adding acid, and the absorbance was measured at 450 nm.

Bax = experiment: Estimation of Bax level in MCF-7 cells; assay type: cell-based, human; conditions: MCF-7 cells treated at IC50 for 24 h; untreated 65.50 Pg/mL
Text: as §3
The levels of Bax protein were evaluated according to the reported method. […] Then, the reaction was terminated by adding acid, and optical density of the produced color was measured at 450 nm.

Human p53 = experiment: Estimation of human p53 level in MCF-7 cells (ELISA); assay type: cell-based
Text: as §3, with “genes.” for “genes. Thus, since compound 5 produced the most promising cytotoxic activity against breast cancer cell lines with a safety profile against the normal cells, it was of interest to study its impact on the regulation of the oncogenic markers Bax, Bcl-2, and p53.”
Human p53 present in MCF-7 cells was determined; using Human p53 ELISA-Kit (CS0070 Sigma) read using spectrophotometer at 450 nm against untreated control cells (negative control) and doxorubicin (positive control) applying the standard protocols of the manufacturers. […] Then, the reaction was terminated by adding acid, and the absorbance was measured at 450 nm.

caspase-3 = experiment: Human CASP-3 (caspase-3) estimation in MCF-7 cells; assay type: cell-based; conditions: MCF-7 cells treated at IC50 for 24 h; untreated 162 ng/mL
caspase-7 = experiment: Human CASP-7 (caspase-7) estimation in MCF-7 cells (ELISA); assay type: cell-based; conditions: for level of caspase-7: MCF-7 cells treated at IC50 for 24 h, untreated 0.3 ng/mL
Method: (§4) Caspases are a family of cysteine proteases that are responsible for launching the programmed cell death (apoptosis). […] Cell shrinkage, chromatin condensation, and DNA fragmentation are all apoptosis events, which need the involvement of caspase-7and caspase-3 [48, 54, 56].
The micro-ELISA plate provided in this kit pre-coated with CASP-7-specific antibody. A biotinylated CASP7 antibody and Avidin–horseradish p eroxidase (HRP) conjugate was added. Aspire the excess components. The substrate solution was added. Wells that contain CASP-7, biotinylated detection antibody, and Avidin-HRP conjugate will appear blue in color. The color turns yellow followed the addition of sulfuric acid solution. The optical density (OD) was measured at a wavelength of 450 nm ± 2 nm.

Tubulin Beta (TUBb) = target: T1, Tubulin Beta (TUBb) (Homo sapiens, UniProt P07437); experiment: ELISA kit for Tubulin Beta (TUBb), tubulin polymerization in MCF-7 cells; assay type: cell-based; conditions: read-out: inhibition of tubulin polymerization IC50 (tubulin B) (converted)
T1 construct: endogenous in cells; host or cells: MCF-7
T1 sequence (P07437 whole entry): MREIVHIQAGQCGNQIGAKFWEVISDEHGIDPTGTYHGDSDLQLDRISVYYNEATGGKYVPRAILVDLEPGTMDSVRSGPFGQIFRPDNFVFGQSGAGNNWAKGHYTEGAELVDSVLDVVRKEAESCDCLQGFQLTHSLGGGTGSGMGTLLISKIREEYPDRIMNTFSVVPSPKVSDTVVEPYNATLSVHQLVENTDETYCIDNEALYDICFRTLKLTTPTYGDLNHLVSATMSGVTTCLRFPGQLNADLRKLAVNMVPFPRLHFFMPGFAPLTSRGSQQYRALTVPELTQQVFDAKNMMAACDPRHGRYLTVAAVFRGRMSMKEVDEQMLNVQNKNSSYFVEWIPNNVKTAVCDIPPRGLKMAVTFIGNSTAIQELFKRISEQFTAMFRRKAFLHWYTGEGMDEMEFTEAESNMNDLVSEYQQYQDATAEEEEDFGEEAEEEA
T1 sequence (P68363 whole entry partner): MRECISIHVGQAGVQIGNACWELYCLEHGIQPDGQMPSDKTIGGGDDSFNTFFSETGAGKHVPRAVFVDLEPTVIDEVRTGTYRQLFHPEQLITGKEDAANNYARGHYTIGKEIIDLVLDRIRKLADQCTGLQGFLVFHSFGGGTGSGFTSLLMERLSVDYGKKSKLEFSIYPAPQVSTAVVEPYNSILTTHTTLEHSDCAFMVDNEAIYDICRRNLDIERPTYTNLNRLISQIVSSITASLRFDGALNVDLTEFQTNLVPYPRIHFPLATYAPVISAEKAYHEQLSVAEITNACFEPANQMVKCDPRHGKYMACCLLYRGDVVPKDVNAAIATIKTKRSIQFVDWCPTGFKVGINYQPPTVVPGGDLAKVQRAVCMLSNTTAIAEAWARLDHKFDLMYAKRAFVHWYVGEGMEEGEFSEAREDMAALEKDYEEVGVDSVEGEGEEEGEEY
Text: as §4

MCF-7 cells = experiment: DNA fragmentation through DPA assay in MCF-7 cells; assay type: cell-based, human; conditions: treated MCF-7 cells; for percentage of DNA fragmentation: untreated 7.8%
Method: as §4
Assessment of DNA fragmentation of the cells was done, as described by the reported method. Briefly, the cells were lysed for 15 min on ice with 0.5% (v/v) Triton X-100, 20 mM EDTA, and […] Tris (pH 8.0). Then, the cells were centrifuged to separate intact chromatin from DNA fragments for 20 min, at 27,000 Xg. Measurement of the amount of DNA was done using a diphenylamine reagent, and the optical density was measured at 600 nm.

[4] = system: Streptococcus pneumonia RCMB 010010; experiment: Well diffusion assay, Streptococcus pneumonia; assay type: cell-based; conditions: Streptococcus pneumonia RCMB 010010, well diffusion
Method: (§5) The newly synthesized peptides 1–8 (compound 6 was not tested) was evaluated for their antimicrobial activity of against three pathogenic Gram-positive bacteria (Staphylococcus aureus ATCC25923, Streptococcus pneumoniaRCMB 010010, and Micrococcus Luteus), three pathogenic Gram-negative bacteria viz. Escherichia coli ATCC25922, Pseudomonas aeruginosa ATCC7853, and Proteus vulgaris RCMB 010085, and the yeast Candida albicans using the well diffusion method. […] The obtained data were documented for each derivative as the average diameter of the inhibition zones (IZ) in mm for the bacterial or the yeast growth around the discs (Table 2). […] Although Micrococcus Luteus bacteria is a normal commensal of human skin and the upper respiratory tract, it acts as an opportunistic pathogen and has been associated with various diseases including meningitis, septic arthritis, and endocarditis. […] Antimicrobial activity of the tested chemical peptides was determined by the well diffusion method for pathogenic bacteria having Gram-positive bacteria (Staphylococcus aureus ATCC25923, Streptococcus pneumonia, and Micrococcus luteus) and Gram-negative bacteria (Escherichia coli ATCC25922, Pseudomonas aeruginosa ATCC7853, and Proteus sp.) and Candida albicans as human pathogen yeast using the well diffusion method.

[5] = system: Staphylococcus aureus ATCC25923; experiment: Well diffusion assay, Staphylococcus aureus; assay type: cell-based
Method: as §5

Micrococcus Luteus = experiment: Well diffusion assay, Micrococcus Luteus; assay type: cell-based
Method: as §5

[6] = system: Escherichia coli ATCC25922; experiment: Well diffusion assay, Escherichia coli; assay type: cell-based
Method: as §5

[7] = system: Pseudomonas aeruginosa ATCC7853; experiment: Well diffusion assay, Pseudomonas aeruginosa; assay type: cell-based
Method: as §5

[8] = system: Proteus vulgaris RCMB 010085; experiment: Well diffusion assay, Proteus vulgaris; assay type: cell-based; conditions: Proteus vulgaris RCMB 010085, well diffusion
Method: as §5

Candida albicans = experiment: Well diffusion assay, Candida albicans; assay type: cell-based
Method: as §5

[9] = system: human liver cancer (HepG-2) cell line; experiment: MTT cytotoxicity assay, liver HepG-2 cancer cell line; assay type: cell-based; conditions: Homo sapiens, HepG2; MTT, mean of three replicates; read-out: IC50 (µg/mL) ± SD HepG-2
Method: as §1, §2

CC1(C(=O)NCC(=O)NCC(=O)NCC(=O)NCC(=O)O)CCC2(C)CCC3(C)C(=CC(=O)C4C5(C)CCC(O)C(C)(C)C5CCC43C)C2C1 (stereo not shown) [Compound 5, 1-(10-Hydroxy-2,4a,6a,6b,9,9,12a-heptamethyl-13-oxo-1,2,3,4,4a,5,6,6a,6b,7,8,8a,9,10,11,12,12a,12b,13,14b-icosahydropicen-2-yl)-1,4,7,10-tetraoxo-2,5,8,11-tetraazatridecan-13-oic Acid] (X1-GGGG-OH)
IC50 [1]: 5 ± 0.3 µg/mL (≈ 7.15 µM)
IC50 [2]: 5.2 ± 0.8 µg/mL (≈ 7.44 µM)
cytotoxicity percentage ([2]; human, 10 µg/mL): 96.16%
cytotoxic effect on normal cells BJ-1 [3]: 20%
level of Bcl-2 (Bcl-2): 3.40 ng/mL
level of Bax protein (Bax): 249.9 pg/mL
rise of p53 level versus untreated MCF-7 (Human p53; MCF-7, 5 μg/mL, 24 h): approximately six-fold
level of p53 (Human p53; MCF-7 cells treated at IC50 5 μg/mL for 24 h, untreated 111.07 Pg/mL): 679.8 pg/mL
level of caspase-3 (caspase-3): 477 ng/mL
caspase-7 level elevation versus untreated cells (caspase-7; MCF-7, 5 μg/mL, 24 h): about a three-fold
level of caspase-7 (caspase-7): 0.9 ng/mL
IC50 (Tubulin Beta (TUBb)): 0.848 µM
DNA fragmentation, times the percent in untreated cells (MCF-7 cells): about 4.5 fold
percentage of DNA fragmentation (MCF-7 cells): 35%
Diameter of Inhibition Zone (mm) [4]: 16 ± 0.12 mm
Diameter of Inhibition Zone (mm) [5]: 15 ± 0.15 mm
Diameter of Inhibition Zone (mm) (Micrococcus Luteus): 30 ± 0.15 mm
Diameter of Inhibition Zone (mm) [6]: 18 ± 0.23 mm
Diameter of Inhibition Zone (mm) [7]: 17 ± 0.16 mm
Diameter of Inhibition Zone (mm) [8]: 10 ± 0.17 mm
Diameter of Inhibition Zone (mm) (Candida albicans): 13 ± 0.17 mm

COc1cccc2c1C(=O)c1c(O)c3c(c(O)c1C2=O)C[C@@](O)(C(=O)CO)C[C@@H]3O[C@H]1C[C@H](N)[C@H](O)[C@H](C)O1 [DOX, doxorubicin, reference compound]
IC50 [1]: 7.07 ± 1 µg/mL (≈ 13 µM)
IC50 [2]: 1.09 ± 3 µg/mL (≈ 2.01 µM)
IC50 [9]: 0.54 ± 1 µg/mL (≈ 0.994 µM)
level of Bax protein (Bax): 259.2 pg/mL
level of caspase-3 (caspase-3): 650 ng/mL
level of caspase-7 (caspase-7): 1.9 ng/mL

COc1cc2c(c(OC)c1OC)-c1ccc(OC)c(=O)cc1[C@@H](NC(C)=O)CC2 [colchicine, reference compound]
percentage of DNA fragmentation (MCF-7 cells): 40.7%
